From patent US20050245399A1, “Pyrazole derivatives as herbicidal compositions containing them” (ISHIHARA SANGYO KAISHA, LTD., priority 2004, published 2005)

Experiments:
Assay type in all cases: in vivo
[1] = tested on: barnyardgrass (Echinochloa crus-galli L.): ECHCG; assay: Test Example 1 pre-emergence herbicidal activity, ECHCG; conditions: Rate 63 g a.i./ha, visually observed 20th to 23rd day after application
Method in brief: (§1)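 Seeds go into pots of upland field soil; one day on, the diluted formulation (500 L/ha water) is sprayed pre-emergence. Effects are scored visually 20 to 23 days post-application as 0–100% growth control.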

[2] = tested on: crabgrass (Digitaria sanguinalis L.): DIGSA; assay: Test Example 1 pre-emergence herbicidal activity, DIGSA; conditions: Rate 63 g a.i./ha, visually observed 20th to 23rd day after application
Method in brief: as §1

[3] = tested on: green foxtail (Setaria viridis L.): SETVI; assay: Test Example 1 pre-emergence herbicidal activity, SETVI; conditions: Rate 63 g a.i./ha, visually observed 20th to 23rd day after application
Method in brief: as §1

[4] = tested on: redroot pigweed (Amaranthus retroflexus L.): AMARE; assay: Test Example 1 pre-emergence herbicidal activity, AMARE; conditions: Rate 63 g a.i./ha, visually observed 20th to 23rd day after application
Method in brief: as §1

[5] = tested on: prickly sida (Sida spinosa L.): SEDSP; assay: Test Example 1 pre-emergence herbicidal activity, SIDSP; conditions: Rate 63 g a.i./ha, visually observed 20th to 23rd day after application
Method in brief: as §1

[6] = tested on: velvetleaf (Abutilon theophrasti): ABUTH; assay: Test Example 1 pre-emergence herbicidal activity, ABUTH; conditions: Rate 63 g a.i./ha, visually observed 20th to 23rd day after application
Method in brief: as §1

[7] = tested on: rice (Oryza sativa L.): ORYSA; assay: Test Example 1 pre-emergence herbicidal activity, ORYSA; conditions: Rate 63 g a.i./ha, visually observed 20th to 23rd day after application
Method in brief: as §1

[8] = tested on: wheat (Triticum aestivum L.): TRZAX; assay: Test Example 1 pre-emergence herbicidal activity, TRZAX; conditions: Rate 63 g a.i./ha, visually observed 20th to 23rd day after application
Method in brief: as §1

[9] = tested on: corn (Zea mays L.): ZEAMX; assay: Test Example 1 pre-emergence herbicidal activity, ZEAMX; conditions: Rate 63 g a.i./ha, visually observed 20th to 23rd day after application
Method in brief: as §1

[10] = tested on: soybean (Glycine max Merr.): GLXMA; assay: Test Example 1 pre-emergence herbicidal activity, GLXMA; conditions: Rate 63 g a.i./ha, visually observed 20th to 23rd day after application
Method in brief: as §1

[11] = tested on: barnyardgrass (Echinochloa crus-galli L.), ECHCG; assay: Test Example 2 post-emergence (foliage treatment) herbicidal activity, ECHCG
Method in brief: (§2)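 Sow in upland soil; grow to leaf stage (barnyardgrass 1.1-2.1, crabgrass 1.0-2.0, pigweed 0.1-1.5, rice 1.0-2); spray foliage at a fixed active ingredient rate in 500 L/ha water with 0.1% (v/v) spreader; rate growth control visually at 20-23 days on a 0-100% scale.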

[12] = tested on: crabgrass (Digitaria sanguinalis L.), DIGSA; assay: Test Example 2 post-emergence (foliage treatment) herbicidal activity, DIGSA
Method in brief: as §2

[13] = tested on: green foxtail (Setaria viridis L.), SETVI; assay: Test Example 2 post-emergence (foliage treatment) herbicidal activity, SETVI
Method in brief: (§3)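 Each species was evaluated for growth suppression by eye, 0% matching untreated and 100% meaning death, some 20 to 23 days after a single post-emergence foliar treatment applied in 500 L/ha of water carrying 0.1% (v/v) agricultural spreader.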

[14] = tested on: redroot pigweed (Amaranthus retroflexus L.), AMARE; assay: Test Example 2 post-emergence (foliage treatment) herbicidal activity, AMARE
Method in brief: as §2

[15] = tested on: prickly sida (Sida spinosa L.), SIDSP; assay: Test Example 2 post-emergence (foliage treatment) herbicidal activity, SIDSP
Method in brief: as §3

[16] = tested on: velvetleaf (Abutilon theophrasti), ABUTH; assay: Test Example 2 post-emergence (foliage treatment) herbicidal activity, ABUTH
Method in brief: as §3

[17] = tested on: rice (Oryza sativa L.), ORYSA; assay: Test Example 2 post-emergence (foliage treatment) herbicidal activity, ORYSA
Method in brief: as §2

[18] = tested on: wheat (Triticum aestivum L.), TRZAX; assay: Test Example 2 post-emergence (foliage treatment) herbicidal activity, TRZAX
Method in brief: as §3

[19] = tested on: corn (Zea mays L.), ZEAMX; assay: Test Example 2 post-emergence (foliage treatment) herbicidal activity, ZEAMX
Method in brief: as §3

[20] = tested on: soybean (Glycine max Merr.), GLXMA; assay: Test Example 2 post-emergence (foliage treatment) herbicidal activity, GLXMA
Method in brief: as §3

[21] = tested on: barnyardgrass (Echinochiloa oryzicola: ECHOR); assay: Test Example 3 water application herbicidal activity (paddy), ECHOR; conditions: 63 g a.i./ha, water application under submerged condition at 0.5 leaf stage, visually observed 14th day after application; 0 = untreated control, 100 = complete kill
Method in brief: (§4)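 Compound, as diluted wettable powder or emulsifiable concentrate, was pipetted into flood water at a set active-ingredient dose. Weeds were treated at 0.5-leaf stage after sowing or tuber planting; 2-leaf rice 4 days post-transplant. Control scored visually, 0 untreated to 100 complete kill, weeds day 14, rice day 21.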

[22] = tested on: japanese bulrush (Scirpus juncoides: SCPJO); assay: Test Example 3 water application herbicidal activity (paddy), SCPJO; conditions: 63 g a.i./ha, water application under submerged condition at 0.5 leaf stage, visually observed 14th day after application; 0 = untreated control, 100 = complete kill
Method in brief: as §4

[23] = tested on: japanese ribbon wapato (Sagittaria pygmaea: SA GPY); assay: Test Example 3 water application herbicidal activity (paddy), SAGPY; conditions: 63 g a.i./ha, water application under submerged condition, tubers planted, visually observed 14th day after application; 0 = untreated control, 100 = complete kill
Method in brief: as §4

[24] = tested on: rice (Oryza sativa L.: ORYSA); assay: Test Example 3 water application herbicidal activity (paddy), transplanted rice ORYSA; conditions: 63 g a.i./ha, water application 4th day after transplantation of 2 leaf stage rice, visually observed 21st day after application; 0 = untreated control, 100 = complete kill
Method in brief: as §4

| Compound | Pre-emergence Herbicidal Activity ECHCG (growth controlling degree) [1] [%] | Pre-emergence Herbicidal Activity DIGSP (growth controlling degree) [2] [%] | Pre-emergence Herbicidal Activity SETVI (growth controlling degree) [3] [%] | Pre-emergence Herbicidal Activity AMARE (growth controlling degree) [4] [%] | Pre-emergence Herbicidal Activity SIDSP (growth controlling degree) [5] [%] | Pre-emergence Herbicidal Activity ABUTH (growth controlling degree) [6] [%] | Pre-emergence Herbicidal Activity ORYSA (growth controlling degree) [7] [%] | Pre-emergence Herbicidal Activity TRZAX (growth controlling degree) [8] [%] | Pre-emergence Herbicidal Activity ZEAMX (growth controlling degree) [9] [%] | Pre-emergence Herbicidal Activity GLXMA (growth controlling degree) [10] [%] | growth controlling degree, ECHCO ([11]; 63 g a.i./ha) [%] | growth controlling degree, DIGSP ([12]; 63 g a.i./ha) [%] | growth controlling degree, SETVI ([13]; 63 g a.i./ha) [%] | growth controlling degree, AMARE ([14]; 63 g a.i./ha) [%] | growth controlling degree, SIDSP ([15]; 63 g a.i./ha) [%] | growth controlling degree, ABUTH ([16]; 63 g a.i./ha) [%] | growth controlling degrees (%) ECHOR [21] [%] | growth controlling degrees (%) SCPJO [22] [%] | growth controlling degrees (%) SAGPY [23] [%] | growth controlling degrees (%) ORYSA [24] [%] | other results |
| --- | --- | --- | --- | --- | --- | --- | --- | --- | --- | --- | --- | --- | --- | --- | --- | --- | --- | --- | --- | --- | --- |
| C#CCN(C=O)c1c(OC(F)F)c(Cl)cc(F)c1-c1nn(C)c(OC(F)F)c1Cl [Compound 1-85] | 60 | 100 | 70 | 100 | 70 | 30 | 10 | 0 | 10 | 0 | 80 | 80 | 100 | 100 | 95 | 100 | 100 | 60 | 70 | 70 | growth controlling degree, ORYSA ([17]; 63 g a.i./ha): 60%; growth controlling degree, TRZAX ([18]; 63 g a.i./ha): 40%; growth controlling degree, ZEAMX ([19]; 63 g a.i./ha): 40%; growth controlling degree, GLXMA ([20]; 63 g a.i./ha): 60% |
| Cn1nc(-c2c(F)cc(Cl)c(OC(F)F)c2NC=O)c(Cl)c1OC(F)F [Compound 1-82] | 100 | 100 | 100 | 100 | 100 | 100 | 80 | 60 | 40 | 10 | 100 | 100 | 100 | 100 | 100 | 100 | 100 | 98 | 100 | 60 | growth controlling degree, ORYSA ([17]; 63 g a.i./ha): 70%; growth controlling degree, TRZAX ([18]; 63 g a.i./ha): 60%; growth controlling degree, ZEAMX ([19]; 63 g a.i./ha): 70%; growth controlling degree, GLXMA ([20]; 63 g a.i./ha): 90% |
| COc1cccc(C(=O)Nc2c(OC)c(Cl)cc(F)c2-c2nn(C)c(OC(F)F)c2Cl)c1 [Compound 1-28] | 80 | 100 | 100 | 100 | 100 | 100 | 60 | 20 | 0 | 20 | 100 | 100 | 100 | 100 | 90 | 100 | 100 | 80 | 100 | 50 | growth controlling degree, ORYSA ([17]; 63 g a.i./ha): 95%; growth controlling degree, TRZAX ([18]; 63 g a.i./ha): 40%; growth controlling degree, ZEAMX ([19]; 63 g a.i./ha): 90%; growth controlling degree, GLXMA ([20]; 63 g a.i./ha): 98% |
| COc1c(Cl)cc(F)c(-c2nn(C)c(OC(F)F)c2Cl)c1NC(=O)CCc1ccccc1 [Compound 1-21] | 95 | 100 | 100 | 100 | 100 | 100 | 40 | 0 | 20 | 10 | – | – | – | – | – | – | 100 | 70 | 100 | 50 | growth controlling degree, ECHCO ([11]; 31 g a.i./ha): 80%; growth controlling degree, DIGSP ([12]; 31 g a.i./ha): 60%; growth controlling degree, SETVI ([13]; 31 g a.i./ha): 95%; growth controlling degree, AMARE ([14]; 31 g a.i./ha): 100%; growth controlling degree, SIDSP ([15]; 31 g a.i./ha): 100%; growth controlling degree, ABUTH ([16]; 31 g a.i./ha): 100%; growth controlling degree, ORYSA ([17]; 31 g a.i./ha): 90%; growth controlling degree, TRZAX ([18]; 31 g a.i./ha): 40%; growth controlling degree, ZEAMX ([19]; 31 g a.i./ha): 90%; growth controlling degree, GLXMA ([20]; 31 g a.i./ha): 70% |
| COc1c(Cl)cc(F)c(-c2nn(C)c(OC(F)F)c2Cl)c1NC(=O)C(C)C [Compound 1-3] | 100 | 100 | 100 | 100 | 100 | 100 | 80 | 40 | 50 | 20 | 70 | 95 | 100 | 100 | 100 | 100 | 100 | 98 | 100 | 80 | growth controlling degree, ORYSA ([17]; 63 g a.i./ha): 80%; growth controlling degree, TRZAX ([18]; 63 g a.i./ha): 40%; growth controlling degree, ZEAMX ([19]; 63 g a.i./ha): 70%; growth controlling degree, GLXMA ([20]; 63 g a.i./ha): 80% |
